In PMC4519236 (Bioorganic & medicinal chemistry, 2013):
“Also recorded” adds a separate entry of the source. One block for each compound: values may come before it.

Assays:
α7* nAChR = α7* nAChR (Rattus norvegicus, UniProt Q05941); assay: Radioligand binding assay, α7* nAChR
α4β2* nAChR [1] = target: α4β2* nAChR (Rattus norvegicus, UniProt P09483+P12390); assay: Radioligand binding assay, α4β2* nAChR
α4β2* nAChR [2] = target: α4β2* nAChR (Homo sapiens, UniProt P17787+P43681); assay: Electrophysiology, α4β2* nAChR expressed in Xenopus oocytes; format: cell-based; details: 1 or 10 μM; co-applied at 1 μM with ACh; relative to ACh control
Chain of α4β2* nAChR (Homo sapiens, UniProt P17787+P43681) (P43681 29-627 limits assumed): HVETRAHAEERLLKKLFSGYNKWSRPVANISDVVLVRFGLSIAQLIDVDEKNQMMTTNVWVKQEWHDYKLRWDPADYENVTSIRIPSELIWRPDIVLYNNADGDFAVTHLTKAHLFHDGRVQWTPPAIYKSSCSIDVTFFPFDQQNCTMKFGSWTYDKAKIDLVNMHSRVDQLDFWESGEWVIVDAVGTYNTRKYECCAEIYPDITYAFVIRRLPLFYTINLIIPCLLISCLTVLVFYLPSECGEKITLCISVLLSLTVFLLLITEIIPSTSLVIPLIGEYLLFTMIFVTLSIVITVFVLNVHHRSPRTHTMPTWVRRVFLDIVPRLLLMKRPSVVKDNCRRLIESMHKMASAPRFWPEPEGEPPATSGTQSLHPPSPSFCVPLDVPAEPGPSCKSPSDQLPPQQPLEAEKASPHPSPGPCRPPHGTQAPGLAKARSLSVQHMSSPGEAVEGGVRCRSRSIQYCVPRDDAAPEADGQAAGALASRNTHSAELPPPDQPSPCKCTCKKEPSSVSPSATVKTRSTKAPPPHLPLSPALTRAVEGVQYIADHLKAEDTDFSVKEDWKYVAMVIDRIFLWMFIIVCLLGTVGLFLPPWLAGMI
Chain of α4β2* nAChR (Homo sapiens, UniProt P17787+P43681) (P17787 26-502): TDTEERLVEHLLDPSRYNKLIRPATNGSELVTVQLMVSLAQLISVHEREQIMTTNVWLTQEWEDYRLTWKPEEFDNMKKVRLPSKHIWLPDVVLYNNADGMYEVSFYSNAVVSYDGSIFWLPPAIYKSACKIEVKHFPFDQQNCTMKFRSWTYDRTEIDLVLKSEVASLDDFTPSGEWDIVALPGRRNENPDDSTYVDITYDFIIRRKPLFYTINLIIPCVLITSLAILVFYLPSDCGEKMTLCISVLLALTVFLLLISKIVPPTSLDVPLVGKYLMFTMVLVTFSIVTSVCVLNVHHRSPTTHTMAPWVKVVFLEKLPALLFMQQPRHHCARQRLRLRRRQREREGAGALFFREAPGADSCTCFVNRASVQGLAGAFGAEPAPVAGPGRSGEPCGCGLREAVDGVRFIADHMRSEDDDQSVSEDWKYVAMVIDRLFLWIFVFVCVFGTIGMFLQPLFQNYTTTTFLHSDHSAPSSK

mouse model = details: ref [26]; cited from earlier work
muscle subtype nAChR = muscle subtype nAChR (Homo sapiens, UniProt P02708+Q07001); assay: Electrophysiology, muscle subtype nAChR expressed in Xenopus oocytes; format: cell-based; details: 1 or 10 μM; co-applied at 1 μM with ACh; relative to ACh control
Chain of muscle subtype nAChR (P02708 21-457): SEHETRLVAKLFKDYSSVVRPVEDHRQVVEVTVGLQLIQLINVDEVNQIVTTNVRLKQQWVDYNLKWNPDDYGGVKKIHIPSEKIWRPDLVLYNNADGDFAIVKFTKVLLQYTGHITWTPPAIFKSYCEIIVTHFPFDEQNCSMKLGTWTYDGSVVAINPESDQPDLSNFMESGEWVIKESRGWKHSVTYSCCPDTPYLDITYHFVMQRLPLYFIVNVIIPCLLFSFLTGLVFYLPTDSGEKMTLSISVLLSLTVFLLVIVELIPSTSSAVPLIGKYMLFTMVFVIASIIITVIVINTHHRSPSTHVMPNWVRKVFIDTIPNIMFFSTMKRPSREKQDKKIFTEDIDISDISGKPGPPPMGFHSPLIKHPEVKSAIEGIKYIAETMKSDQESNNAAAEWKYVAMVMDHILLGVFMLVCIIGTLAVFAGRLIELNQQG
Chain of muscle subtype nAChR (P11230 24-501 partner): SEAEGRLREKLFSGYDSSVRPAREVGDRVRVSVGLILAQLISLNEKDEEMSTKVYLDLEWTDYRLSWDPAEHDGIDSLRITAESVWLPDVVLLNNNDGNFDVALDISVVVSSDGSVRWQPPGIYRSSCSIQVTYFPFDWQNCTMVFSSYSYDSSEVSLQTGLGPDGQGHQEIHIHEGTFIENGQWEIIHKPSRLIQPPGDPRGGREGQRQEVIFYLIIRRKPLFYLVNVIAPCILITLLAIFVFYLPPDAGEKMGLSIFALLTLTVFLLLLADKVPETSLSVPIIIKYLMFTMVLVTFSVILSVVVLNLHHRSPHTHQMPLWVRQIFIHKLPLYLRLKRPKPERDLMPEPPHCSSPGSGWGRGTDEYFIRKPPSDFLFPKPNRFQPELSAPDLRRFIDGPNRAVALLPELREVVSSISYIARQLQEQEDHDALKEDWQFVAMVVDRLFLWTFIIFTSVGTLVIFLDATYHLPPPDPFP
Chain of muscle subtype nAChR (Q07001 22-517): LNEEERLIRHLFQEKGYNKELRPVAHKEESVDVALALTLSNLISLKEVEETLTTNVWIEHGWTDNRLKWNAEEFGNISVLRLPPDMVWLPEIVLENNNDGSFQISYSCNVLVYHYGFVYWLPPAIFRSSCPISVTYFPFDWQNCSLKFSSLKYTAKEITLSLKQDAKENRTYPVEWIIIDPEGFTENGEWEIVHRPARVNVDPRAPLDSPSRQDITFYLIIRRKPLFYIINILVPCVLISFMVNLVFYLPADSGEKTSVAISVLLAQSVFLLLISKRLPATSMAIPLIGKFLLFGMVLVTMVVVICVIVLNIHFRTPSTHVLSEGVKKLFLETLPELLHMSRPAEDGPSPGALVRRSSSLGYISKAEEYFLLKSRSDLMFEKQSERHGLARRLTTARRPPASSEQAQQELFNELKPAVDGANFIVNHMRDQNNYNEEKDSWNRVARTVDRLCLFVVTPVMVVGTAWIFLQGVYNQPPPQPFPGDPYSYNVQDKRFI

α3β4* nAChR [3] = target: α3β4* nAChR (Homo sapiens, UniProt P30926+P32297); assay: Electrophysiology, α3β4* nAChR expressed in Xenopus oocytes; format: cell-based; details: 1 or 10 μM; co-applied at 1 μM with ACh; relative to ACh control
Chain of α3β4* nAChR (Homo sapiens, UniProt P30926+P32297) (P32297 32-505): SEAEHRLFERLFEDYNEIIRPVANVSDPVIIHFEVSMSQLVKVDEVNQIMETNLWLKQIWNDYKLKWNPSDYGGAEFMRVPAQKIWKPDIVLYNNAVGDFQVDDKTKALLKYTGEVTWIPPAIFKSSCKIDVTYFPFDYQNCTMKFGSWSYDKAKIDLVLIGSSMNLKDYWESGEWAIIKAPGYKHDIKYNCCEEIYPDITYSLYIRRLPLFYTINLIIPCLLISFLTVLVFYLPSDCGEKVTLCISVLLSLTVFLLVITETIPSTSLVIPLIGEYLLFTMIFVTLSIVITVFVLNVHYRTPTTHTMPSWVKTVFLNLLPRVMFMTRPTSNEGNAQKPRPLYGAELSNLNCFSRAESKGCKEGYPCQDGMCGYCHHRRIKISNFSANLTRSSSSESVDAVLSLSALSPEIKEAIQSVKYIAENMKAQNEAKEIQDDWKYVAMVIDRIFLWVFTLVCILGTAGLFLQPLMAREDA
Chain of α3β4* nAChR (Homo sapiens, UniProt P30926+P32297) (P30926 22-498): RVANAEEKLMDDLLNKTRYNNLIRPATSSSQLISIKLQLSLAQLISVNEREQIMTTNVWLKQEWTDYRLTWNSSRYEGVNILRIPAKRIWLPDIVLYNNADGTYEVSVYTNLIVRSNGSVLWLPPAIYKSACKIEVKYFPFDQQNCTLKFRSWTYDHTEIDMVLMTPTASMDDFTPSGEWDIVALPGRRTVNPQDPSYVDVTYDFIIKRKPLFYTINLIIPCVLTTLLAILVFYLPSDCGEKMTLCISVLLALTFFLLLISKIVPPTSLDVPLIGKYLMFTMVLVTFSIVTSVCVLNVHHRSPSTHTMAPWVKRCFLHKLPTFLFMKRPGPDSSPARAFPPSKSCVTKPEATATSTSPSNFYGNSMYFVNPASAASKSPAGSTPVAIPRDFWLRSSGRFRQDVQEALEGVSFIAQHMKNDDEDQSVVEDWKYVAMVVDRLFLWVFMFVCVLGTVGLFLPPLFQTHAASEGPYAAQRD

(α1)2β1γδ nAChR = (α1)2β1γδ nAChR (Tetronarce californica, UniProt P02710+P02714+P02718); assay: Radioligand binding assay, muscle type
α3β4* nAChR [4] = assay: Radioligand binding assay, α3β4* nAChR
[5] = relative to vinyl spacer analog 26

Chain of α4β2* nAChR (Rattus norvegicus, UniProt P09483+P12390) (P09483 31-630): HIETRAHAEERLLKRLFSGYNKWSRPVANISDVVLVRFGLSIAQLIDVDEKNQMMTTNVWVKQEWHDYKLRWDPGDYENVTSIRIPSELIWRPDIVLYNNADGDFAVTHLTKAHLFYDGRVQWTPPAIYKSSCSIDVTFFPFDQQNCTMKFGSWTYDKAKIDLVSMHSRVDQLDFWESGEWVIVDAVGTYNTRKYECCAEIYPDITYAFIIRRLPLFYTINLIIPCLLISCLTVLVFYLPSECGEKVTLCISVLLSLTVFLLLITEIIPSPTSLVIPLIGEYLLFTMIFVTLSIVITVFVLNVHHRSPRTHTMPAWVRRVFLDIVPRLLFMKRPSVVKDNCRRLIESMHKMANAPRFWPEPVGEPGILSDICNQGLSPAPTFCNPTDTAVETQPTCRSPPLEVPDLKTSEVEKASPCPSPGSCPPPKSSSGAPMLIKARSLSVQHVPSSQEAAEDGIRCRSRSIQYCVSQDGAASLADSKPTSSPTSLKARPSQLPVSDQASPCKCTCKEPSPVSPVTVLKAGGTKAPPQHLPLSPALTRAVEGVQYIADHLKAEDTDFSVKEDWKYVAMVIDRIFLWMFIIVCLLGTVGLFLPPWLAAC
Chain of α4β2* nAChR (Rattus norvegicus, UniProt P09483+P12390) (P12390 25-500): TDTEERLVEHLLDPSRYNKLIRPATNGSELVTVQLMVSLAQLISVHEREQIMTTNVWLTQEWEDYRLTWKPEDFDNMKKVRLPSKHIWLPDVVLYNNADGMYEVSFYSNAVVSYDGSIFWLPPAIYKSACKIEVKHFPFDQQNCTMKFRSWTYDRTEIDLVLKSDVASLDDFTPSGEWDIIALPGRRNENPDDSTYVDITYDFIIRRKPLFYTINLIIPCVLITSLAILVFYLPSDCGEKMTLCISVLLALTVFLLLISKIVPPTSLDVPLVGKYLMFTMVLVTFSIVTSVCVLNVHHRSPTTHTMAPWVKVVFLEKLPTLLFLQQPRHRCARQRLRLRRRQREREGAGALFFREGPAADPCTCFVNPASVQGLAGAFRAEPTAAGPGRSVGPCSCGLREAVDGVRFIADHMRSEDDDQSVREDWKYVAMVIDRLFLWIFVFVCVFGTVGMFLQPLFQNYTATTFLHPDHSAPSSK
Chain of α7* nAChR (Q05941 23-502): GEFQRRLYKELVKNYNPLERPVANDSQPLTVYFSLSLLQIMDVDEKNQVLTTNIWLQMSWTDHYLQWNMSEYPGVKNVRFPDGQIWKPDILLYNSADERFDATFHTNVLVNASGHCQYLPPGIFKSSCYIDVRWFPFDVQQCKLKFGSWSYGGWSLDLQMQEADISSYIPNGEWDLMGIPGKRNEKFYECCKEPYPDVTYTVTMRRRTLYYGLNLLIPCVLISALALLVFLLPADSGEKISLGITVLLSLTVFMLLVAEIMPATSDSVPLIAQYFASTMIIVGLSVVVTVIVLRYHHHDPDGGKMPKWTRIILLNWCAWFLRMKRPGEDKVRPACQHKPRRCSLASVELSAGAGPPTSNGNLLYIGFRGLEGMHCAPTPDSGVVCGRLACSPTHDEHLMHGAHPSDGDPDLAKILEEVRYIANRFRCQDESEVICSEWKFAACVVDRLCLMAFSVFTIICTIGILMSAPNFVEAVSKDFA

Compound: O=C(c1csc(-c2ccncc2)n1)N1C[C@@H]2CNC[C@@H](C2)C1 [Compound 55, (1R,5S)-3,7-diazabicyclo[3.3.1]nonan-3-yl(2-(pyridine-4-yl)thiazol-4-yl)methanone]
affinity for α4β2* / nAChRs tested, in words (α4β2* nAChR [1]): did not show any affinity

Compound: O=c1c(-c2ccccc2)ccc2n1C[C@@H]1CNC[C@H]2C1 [Compound 4, 9-phenyl-1,2,3,4,5,6-hexahydro-1,5-methano-pyridino[1,2-a]diazocin-8-one]
α4β2* affinity lower than cytisine 1 (α4β2* nAChR [1]; relative to cytisine 1): about 1000 times

Compound: O=C(c1ccc(-c2ccncc2)cc1)N1C[C@@H]2CNC[C@@H](C2)C1 [Compound 53, (1R,5S)-3,7-diazabicyclo[3.3.1]nonan-3-yl(4-(pyridin-4-yl)phenyl)methanone]
functional effect at α4β2* (α4β2* nAChR [2]): strongest antagonistic effects

Compound: O=C(Cc1ccccc1)N1C[C@@H]2CNC[C@@H](C2)C1 [Compound 30, 1-((1R,5S)-3,7-diazabicyclo[3.3.1]nonan-3-yl)-2-phenylethanone]
increase of α4β2* affinity (α4β2* nAChR [1]; relative to compound 29): about 8 fold

Compound: O=C(c1ccc(-c2cccnc2)cc1)N1C[C@@H]2CNC[C@@H](C2)C1 [Compound 52, (1R,5S)-3,7-diazabicyclo[3.3.1]nonan-3-yl(4-(pyridin-3-yl)phenyl)methanone]
functional effect at α4β2* (α4β2* nAChR [2]): strongest antagonistic effects

Compound: O=C(C#Cc1ccccc1)N1C[C@@H]2CNC[C@@H](C2)C1 [Compound 42]
higher affinity for α4β2* (α4β2* nAChR [1]; relative to analogs 32 and 16): 5 times

Compound: O=C(/C=C/c1ccccc1)N1C[C@@H]2CNC[C@@H](C2)C1 [Compound 16, (E)-1-((1R,5S)-3,7-diazabicyclo[3.3.1]nonan-3-yl)-3-phenylprop-2-en-1-one]
affinity for (α1)2β1γδ nAChR, in words ((α1)2β1γδ nAChR): lacked affinity
affinity for α7* nAChR, in words (α7* nAChR): lacked affinity
affinity for α3β4* nAChR, in words (α3β4* nAChR [4]): lacked affinity

The next lines start with results.

affinity for α7* nAChR, in words (α7* nAChR): no affinity
Compound: O=C(CCc1ccccc1)N1C[C@@H]2CNC[C@@H](C2)C1 [Compound 32, 1-((1R,5S)-3,7-diazabicyclo[3.3.1]nonan-3-yl)-3-phenylpropan-1-one]

higher affinity for α4β2* (α4β2* nAChR [1]; [5]): ~10 fold
functional effect at α4β2* (α4β2* nAChR [2]): strongest antagonistic effects
Compound: O=C(C#Cc1ccc2c(c1)OCO2)N1C[C@@H]2CNC[C@@H](C2)C1 [Compound 50, 1-((1R,5S)-3,7-diazabicyclo[3.3.1]nonan-3-yl)-3-(benzo[d][1,3]dioxol-5-yl)prop-2-yn-1-one]

functional effect at α4β2* (α4β2* nAChR [2]): strongest antagonistic effects
Compound: O=C(c1ccc(-n2ccnc2)cc1)N1C[C@@H]2CNC[C@@H](C2)C1 [Compound 54, (4-(1H-imidazol-1-yl)phenyl)((1R,5S)-3,7-diazabicyclo[3.3.1]nonan-3-yl)methanone]

functional effect at α4β2* (α4β2* nAChR [2]): strongest antagonistic effects
Compound: CS(=O)(=O)c1ccc(CC(=O)N2C[C@@H]3CNC[C@@H](C3)C2)cc1 [Compound 35, 1-((1R,5S)-3,7-diazabicyclo[3.3.1]nonan-3-yl)-2-(4-(methylsulfonyl)phenyl)ethanone]
in vivo activity in a mouse model (mouse model): antidepressive effect

higher affinity for α4β2* (α4β2* nAChR [1]; [5]): ~10 fold
functional effect at muscle subtype (muscle subtype nAChR): some antagonistic effect
functional effect at α4β2* (α4β2* nAChR [2]): strongest antagonistic effects
Compound: COc1ccc(C#CC(=O)N2C[C@@H]3CNC[C@@H](C3)C2)cc1OC [Compound 46, 1-((1R,5S)-3,7-diazabicyclo[3.3.1]nonan-3-yl)-3-(3,4-dimethoxyphenyl)prop-2-yn-1-one]

affinity for α4β2* / nAChRs tested, in words (α4β2* nAChR [1]): failed to interact
Compound: O=C(Cc1c(F)c(F)c(F)c(F)c1F)N1C[C@@H]2CNC[C@@H](C2)C1 [Compound 34, 1-((1R,5S)-3,7-diazabicyclo[3.3.1]nonan-3-yl)-2-(2,3,4,5,6-pentafluorophenyl)ethanone]

Ki (α4β2* nAChR [1]): ~1 nM
functional effect at α4β2* (α4β2* nAChR [2]): strongest antagonistic effects
Compound: O=C([C@@H]1C[C@H]1c1ccccc1)N1C[C@@H]2CNC[C@@H](C2)C1 [Compound 15, (1R,5S)-3,7-diazabicyclo[3.3.1]nonan-3-yl((1R,2R)-2-phenylcyclopropyl)methanone]
functional effect at α3β4* (α3β4* nAChR [3]): agonist; also recorded: most potent agonist

functional effect at α4β2* (α4β2* nAChR [2]): strongest antagonistic effects
Compound: COc1ccc(C#CC(=O)N2C[C@@H]3CNC[C@@H](C3)C2)cc1Cl [Compound 47, 1-((1R,5S)-3,7-diazabicyclo[3.3.1]nonan-3-yl)-3-(3-chloro-4-methoxyphenyl)prop-2-yn-1-one]
